Test results reported in patent publication US4279887A, “Amides useful as brain imaging agents” (Medi-Physics, Inc., priority 1978, dated 1981).
Like-named read-outs stand apart in the source and are kept apart here.

Columns and labels:
[1] = Bioassay of I-123-labeled compounds: organ distribution of activity 5 minutes after tail vein injection; format: in vivo, Female Sprague-Dawley rats; settings: rat; for Percent Dose in Stomach / Ratio Brain/Blood / Ratio Heart/Blood: 5 min
Experimental: Bioassays were performed utilizing compounds from the foregoing examples labeled with I-123 in accordance with the method described in Example 18. Female Sprague-Dawley rats weighing approximately 150 g were anesthetized with sodium pentobarbital and were injected in a tail vein with from 0.05 to 1.0 mCi (in a volume of 0.2 to 0.5 ml) of the I-123-labeled compound. Two specimens were utilized for each test.
The animals were sacrificed at 5 minutes post injection, the tails discarded and the amount of activity in various organs determined. Each organ was counted at a standardized geometry with a thallium iodide-activated sodium iodide crystal scintillation counter adjusted for the 159 keV emission of I-123. The organs were also weighed to one thousandth of a gram and the activity calculated as a percent of administered dose per gram organ weight.
The ratio of brain-to-blood activity was calculated as a percent of administered dose per gram. The important determinations are the amount of activity in the brain and the brain/blood ratio. The amount of activity in the stomach is related to loss of the I-123-label. For comparative purposes, I-123 antipyrine was utilized as a standard.

[2] = I-123 labeled, cited from earlier work
[3] = in vivo, iv, Percent Dose/g. at 5 min., Blood
[4] = in vivo, iv, Percent Dose/g. at 5 min., Brain
[5] = in vivo, iv, Percent Dose/g. at 5 min., Heart
[6] = i.v., ratio of percent dose per gram
[7] = i.v., stomach activity is related to loss of the I-123 label

| SMILES | Percent Dose in Stomach ([1]; in vivo, iv) | Ratio Brain/Blood ([1]; in vivo, iv) | Ratio Heart/Blood ([1]; in vivo, iv) | tissue uptake at 5 min [1, 3] | tissue uptake at 5 min [1, 4] | tissue uptake at 5 min [1, 5] | Ratio Brain/Blood [1, 6] | Ratio Heart/Blood [1, 6] | Percent Dose in Stomach [1, 7] | tissue uptake at 5 min ([1]; in vivo, iv, i.v. tail vein, 5 min post injection, blood, I-123 label, read-out: Percent Dose/g. at 5 min., Blood) | tissue uptake at 5 min ([1]; in vivo, iv, i.v. tail vein, 5 min post injection, brain, I-123 label, read-out: Percent Dose/g. at 5 min., Brain) | tissue uptake at 5 min ([1]; in vivo, iv, i.v. tail vein, 5 min post injection, heart, I-123 label, read-out: Percent Dose/g. at 5 min., Heart) | concentration in the brain ([2]; literature) | in vivo deiodination ([2]; literature) | loss of the iodine label in the brain ([2]; prior art agent) |
| --- | --- | --- | --- | --- | --- | --- | --- | --- | --- | --- | --- | --- | --- | --- | --- |
| CNC(=O)c1ccccc1[123I] [Example 1, N-methyl-o-iodobenzamide] | 0.94 Percent Dose | 1.21 | 1.28 | 0.86 %ID/g | 1.04 %ID/g | 1.1 %ID/g |  |  |  |  |  |  |  |  |  |
| NC(=O)c1ccccc1[123I] [Example 2, o-iodobenzamide] | 0.93 Percent Dose | 1.28 | 1.32 | 0.69 %ID/g | 0.88 %ID/g | 0.91 %ID/g |  |  |  |  |  |  |  |  |  |
| CCCCCCNC(=O)c1ccccc1[123I] [Example 3, N-hexyl-o-iodobenzamide] | 0.86 Percent Dose | 1.05 | 1.21 | 0.56 %ID/g | 0.59 %ID/g | 1.04 %ID/g |  |  |  |  |  |  |  |  |  |
| CCCCCCCCCCCCCCCCCCNC(=O)c1ccccc1[123I] [Example 5, N-octadecyl-o-iodobenzamide] | 0.20 Percent Dose | 0.10 | 0.92 | 0.91 %ID/g | 0.09 %ID/g | 0.84 %ID/g |  |  |  |  |  |  |  |  |  |
| O=C(Nc1ccccc1)c1ccccc1[123I] [Example 6, o-iodobenzanilide] |  |  |  |  |  |  | 0.90 | 2.34 | 1.66 Percent Dose | 0.93 %ID/g | 0.84 %ID/g | 2.18 %ID/g |  |  |  |
| Cc1cccc(C)c1NC(=O)c1ccccc1[123I] [Example 7, o-iodobenz-2,6-xylidide] | 0.82 Percent Dose | 0.87 | 1.43 | 0.69 %ID/g | 0.6 %ID/g | 0.99 %ID/g |  |  |  |  |  |  |  |  |  |
| O=C(NCc1ccccc1)c1ccccc1[123I] [Example 8, N-benzyl-o-iodobenzamide] | 0.88 Percent Dose | 1.00 | 2.26 | 0.68 %ID/g | 0.68 %ID/g | 1.54 %ID/g |  |  |  |  |  |  |  |  |  |
| O=C(NCCc1ccccc1)c1ccccc1[123I] [Example 9, N-phenethyl-o-iodobenzamide] | 0.82 Percent Dose | 1.28 | 1.70 | 0.43 %ID/g | 0.54 %ID/g | 0.73 %ID/g |  |  |  |  |  |  |  |  |  |
| CN(C)C(=O)c1ccccc1[123I] [Example 10, N, N-dimethyl-o-iodobenzamide] | 0.93 Percent Dose | 0.22 | 0.72 | 2.15 %ID/g | 0.48 %ID/g | 1.54 %ID/g |  |  |  |  |  |  |  |  |  |
| NC(=O)CNC(=O)c1ccccc1[123I] [Example 12, o-iodohippuramide] | 0.83 Percent Dose | 1.10 | 1.31 | 0.84 %ID/g | 0.92 %ID/g | 0.96 %ID/g |  |  |  |  |  |  |  |  |  |
| O=C(NNc1ccccc1)c1ccccc1[123I] [Example 13, o-iodobenzphenylhydrazide] | 1.10 Percent Dose | 0.20 | 0.55 | 1.99 %ID/g | 0.39 %ID/g | 1.09 %ID/g |  |  |  |  |  |  |  |  |  |
| O=C(NO)c1ccccc1[123I] [Example 14, o-iodobenzohydramic acid] | 0.96 Percent Dose | 0.57 | 0.99 | 0.95 %ID/g | 0.54 %ID/g | 0.94 %ID/g |  |  |  |  |  |  |  |  |  |
| Cc1c([123I])c(=O)n(-c2ccccc2)n1C [I^123 -iodoantipyrine, 4-iodoantipyrine] |  |  |  |  |  |  |  |  | 2.32 Percent Dose |  |  |  | suboptimal concentration in the brain | rapid in vivo deiodination | significant loss of the iodine label in the brain |
